Measurements from US8288390B2, “Benzofuran derivatives” (Takeda Pharmaceutical Company Limited, priority 2009, dated 2012).

Columns and labels:
rat mixed glial culture = assay: Activity of promoting neuronal neogenesis in rat mixed glial culture; format: cell-based; conditions: Rattus norvegicus, 72 h, compound 1 μM + rhIGF-1 100 ng/ml, 3 days culture; absorbance at 450 nm (class III beta-tubulin antibody); control rhIGF-1 only = 100%; read-out: Increase Ratio of the Absorbance (% control)
Description: From a three-day old SD rat, hippocampus and cerebral cortex were removed. By using a kit of dispersion liquid for neuronal cells (MB-X9901, manufactured by SUMITOMO BAKELITE CO., LTD.), cell suspension was prepared and then seeded on a 96-well plate coated with collagen Type I (4860-010, manufactured by Asahi Techno Glass Co., Ltd.) to 10^5 cells/well. Under the condition of 37° C. and 5% CO2, the cells were cultured for four days in a growth medium (D-MEM/F12 with 10% FBS, comprising PS).
After culturing, the medium was exchanged with a medium for differentiation (D-MEM/F12, comprising PS), added with rhIGF-1 (R&D Systems, 291-G1-250, final concentration of 100 ng/ml) and the compound to 1 μM, followed by further culture for three days. Cultured cells were fixed with 4% paraformaldehyde-PBS (manufactured by MUTO PURE CHEMICALS CO., LTD.) and subjected to membrane penetration using 0.1% Triton X-100 PBS, followed by blocking with Block Ace solution (UK-B80, manufactured by Dainippon Sumitomo Pharma Co., Ltd.). As a primary antibody, Anti-neuron-specific class III beta-tubulin antibody (R&D Systems, MAB1195, clone Tuj-1) was used after 1000× dilution. As a secondary antibody, Anti-Mouse Ig, HRP-Linked F (ab′) 2 Fragment Sheep (Amersham Biosciences, NA9310) was used after 10000× dilution. For washing process, the plate washer (BIO-TEK INSTRUMENTS ELX405) was used. For a chromogenic reaction, the reaction was carried out for 10 minutes using TMB Microwell Peroxidase Substrate System (Kirkegaard & Perry Laboratories, 50-76-00), followed by terminating the reaction according to the addition of 1M phosphoric acid. By using the plate reader (Labsystems Multiskan BICHROMATIC), absorbance at 450 nm was measured.
The absorbance for the case in which no compound is added (i.e., control, rhIGF-1 only) was 100%, and the increase ratio of the absorbance for the compound addition (i.e., compound+rhIGF-1) compared to the control was obtained as % control. Activity of the each compound for promoting neuronal differentiation that is measured according to the above method is summarized in Table 9 and Table 10.

Akt protein = assay: Activity of inhibiting Akt protein degradation in rat mixed glial culture; format: cell-based; conditions: compound 1 μM + rhIGF-1 100 ng/ml, 10 minutes at 37° C.; Akt calibrated with ERK; no addition = 100%, rhIGF-1 only = 0%
Description: The mixed glial cells used in the Test example 1 were seeded on a 6-well plate coated with collagen Type I (manufactured by Asahi Techno Glass Co., Ltd.) to 4×10^6 cells/well. Under the condition of 37° C. and 5% CO2, the cells were cultured for four days in a growth medium (D-MEM/F12 with 10% FBS, comprising PS). After that, the medium was exchanged with a serum-free medium (D-MEM/F12, comprising PS) and the cells were subjected to starvation for 4 hours under the condition of 37° C. and 5% CO2.
Next, rhIGF-1 (R&D Systems, 291-G1-250, final concentration 100 ng/ml) and the compound were added to obtain 1 μM and reacted in a water bath incubator at 37° C. for 10 minutes. Culture supernatant was aspirated off, 150 μL of RIPA (50 mM Tris-HCl pH7.5, 5 mM EDTA, 100 mM NaCl, 30 mM NaF, 5 mM sodium diphosphate, 137 mg/l pepstatin A, 2.5 KIU/l aprotinin, 1% NP-40, 6 mM sodium deoxycholate, 1 μM microcystinLR, 1 μM Z-Leu-Leu-Nva-H(aldehyde), 48 μM leupeptin, 96 μM 4-(2-aminoethyl)benzenesulfonyl fluoride-HCl, 1 mM sodium orthovanadate) was added thereto, and the reaction was terminated. After the termination of the reaction, the cell lysate was recovered by using a cell scraper on ice. Finally, the cell lysate was centrifuged for 30 minutes at 15000 rpm and the supernatant was taken as a cell extract.
Proteins were recovered from the cell extract by using trichloroacetic acid, and quantified according to Lowry method. Standard curve was established with bovine serum albumin. Based on the measured values, each cell extract was diluted with RIPA to prepare it in constant concentration (10 μg/lane). SDS-PAGE was carried out under reducing condition using 10% acrylamide (45 mA, 1.5 hours). After transferring to a PVDF membrane (0.13 A, 1 hour), reaction with an antibody was carried out. As a primary antibody, Akt (Cell Signaling, 9272) and ERK (Santa Cruz, sc-94) were used with the dilution ratio of 1000. As a secondary antibody, HRP-labeled anti-rabbit antibody (NA9340V, manufactured by Amersham) was used with the dilution ratio of 12500. Then, using ImmunoStar reagent (291-55203, manufactured by Wako Pure Chemical Industries, Ltd.), X-ray film detection was carried out. Quantification of the results was carried out by using GS-800 Calibrated Densitometer (manufactured by BioRad), and then the band strength was converted into the numerals by multiplying the absorbance originating from bands of Akt and ERK-1&2 by the area. Akt was calibrated with ERK to give the numeral values.
Inhibitory activity on Akt degradation was expressed as inhibition ratio. Specifically, the case in which neither the compound nor rhIGF-1 was added (no addition) is 100% and the case in which only rhIGF-1 was added is 0%, and then with the value measured from compound+rhIGF-1, the inhibition ratio was obtained. Inhibition ratio(%)=[(compound+rhIGF-1)−(rhIGF-1)]÷[(no addition)−(rhIGF-1)]×100

Tg2576 transgenic mice = assay: Amelioration of cognitive function in novel object recognition test; format: in vivo, mouse; conditions: female Tg2576 mice, 10 mg/kg/day orally once a day for 3 weeks; retention 24 hours after training; recovery ratio vs vehicle Tg2576 and wild type
Description: Female Tg2576 transgenic mice and wild-type littermates were used at 8-9 months old. All animals were housed in room maintained at 24±1° C. with a 12-h light/dark cycle. Lights on 7:00 a.m. Food chows (Oriental Yeast Co. Tokyo, Japan) and tap water were provided ad libitum.
The compounds (10 mg/kg/day) or vehicle (0.5% methylcellulose, Wako Pure Chemical Industries Limited, Osaka, Japan) was orally administered to the mice once a day for 3 weeks. After the gavages, the novel object recognition test was performed. The test procedure consisted of three sessions: habituation, training, and retention. In the training and retention sessions, observer was not informed of the group name or animal number (blind method). 4-5 mice were habituated to the box (30×30×30 high cm), with 30 minutes of exploration in the absence of objects (habituation session). During the training session, two objects were placed in the back corner of the box. A mouse was then placed at another corner of the box and the total time spent exploring the two objects was recorded for 5 minutes. During the retention session, animals were placed back into the same box 24 hours after the training session, in which one of the familiar objects used during training was replaced with a novel object. The animals were then allowed to explore freely for 5 minutes and the time spent exploring each object was recorded. Throughout the experiments, the objects were used in a counterbalanced manner in terms of an environmental effect, their physical complexity and emotional neutrality. A preference index (PI), a ratio of the amount of time spent exploring the novel object over the total time spent exploring both objects, was used to measure cognitive function. Furthermore, recovery ratio was calculated by following formula; [Recovery ratio]=[[PI of Tg2576 mice treated by each compound]−[PI of Tg2576 mice treated by vehicle]]/[[PI of wild type mice]−[PI of Tg2576 mice treated by vehicle]].×100(%)

Structure (SMILES) | melting point [°C] | activity at 1 µM (rat mixed glial culture) [%] | Inhibition of Akt degradation (%) (Akt protein) | Preference index (% recovery) (Tg2576 transgenic mice)
Cc1c(C)c(N2CCN(c3ccnc(Cl)n3)CC2)c(C)c2c1OC(C)(C)C2 [Example 82, 2-Chloro-4-[4-(2,2,4,6,7-pentamethyl-2,3-dihydro-1-benzofuran-5-yl)piperazin-1-yl]pyrimidine] | 192 to 193 | – | – | –
COc1ccc(N2CCN(c3c(C)c(C)c4c(c3C)CC(C)(C)O4)CC2)cc1 [Example 17, 1-(4-Methoxyphenyl)-4-(2,2,4,6,7-pentamethyl-2,3-dihydro-1-benzofuran-5-yl)piperazine] | – | 216 | 73.3 | 70.9
COc1ccc(N2CCN(c3c(C)c(C)c4c(c3C)C[C@H](C)O4)CC2)cc1 [Example 22, 1-(4-Methoxyphenyl)-4-[(2S)-2,4,6,7-tetramethyl-2,3-dihydro-1-benzofuran-5-yl]piperazine] | – | 389 | 73.9 | 76.9
COc1ccc(N2CCN(c3c(C)c4c(c(OC)c3C)OC(C)(C)C4)CC2)cc1 [Example 47, 1-(4-Methoxyphenyl)-4-(7-methoxy-2,2,4,6-tetramethyl-2,3-dihydro-1-benzofuran-5-yl)piperazine] | – | > 500 | 55.2 | 82.2
